Reference: paper PMC7998669, “7-(2-Anilinopyrimidin-4-yl)-1-benzazepin-2-ones Designed by a “Cut and Glue” Strategy Are Dual Aurora A/VEGF-R Kinase Inhibitors” (Molecules, 2021)

What was measured:
Assay in all cases: NCI cancer cell line screen (sulforhodamin B)
Type in all cases: cell-based
SW-620 = conditions: Homo sapiens; SW-620, Colon; 48 h; read-out: log10 GI50 (converted)
Protocol: (§1) The new dual Aurora A/VEGF-R inhibitors 2e and 2n were selected by the National Cancer Institute for screening in its broad cancer cell line panel. The NCI in vitro assay is performed by incubation of cells with test compounds for 48 h and subsequent cell fixation with trichloroacetic acid. The pink dye sulforhodamin B is added, which binds to the proteins of the fixed cells. After washing and solubilizing the bound stain, the optical density is measured spectrophotometrically to determine the relative proliferation of treated and untreated cells.
(§2) Simultaneous inhibition of the Aurora A kinase and the VEGF-R2/3 receptor kinases may represent an interesting dual activity for the treatment of cancer. The National Cancer Institute selected the compounds 2e and 2n as representatives with particularly high inhibitory activity on the above kinases for testing in the IVCLS (in vitro cell line screening). In this screening, compounds are tested for antiproliferative activity on about 60 in vitro cultivated tumor cell lines. Based on this very broad screening on cell lines from nine tumor entities the general antiproliferative potency of compounds is determined. In addition, the bioinformatic tool COMPARE allowed one to draw conclusions on the molecular target of the compounds from the activity patterns on the different cell lines. Similar molecular mechanisms of action of two compounds are assumed if a Pearson correlation coefficient (PCC) of > 0.6 is calculated by COMPARE [52, 53]. […] The selectivity profile of the two compounds is not very pronounced given the overall very similar proliferation inhibition values across all cell lines. A COMPARE analysis determined a PCC = 0.61 for the patterns of test compounds 2e and 2n, which is consistent with an analogous mechanism of action. However, whether this mechanism is actually based on the inhibition of the inhibited Aurora kinases and VEGF receptor kinases cannot be deduced from these profiles.

HS 578T = conditions: Homo sapiens, Breast, 48 h, read-out: log10 GI50 (converted)
Protocol: as §1, §2

K-562 = conditions: Homo sapiens, K562; K-562, Leukemia; 48 h; read-out: log10 GI50 (converted)
Protocol: as §1, §2

MDA-MB-231/ATCC = conditions: Homo sapiens, Breast, 48 h, read-out: log10 GI50 (converted)
Protocol: as §1, §2

NCI-H322M = conditions: Homo sapiens, NSCL, 48 h, read-out: log10 GI50 (converted)
Protocol: as §1, §2

MCF7 = conditions: Homo sapiens; MCF7, Breast; 48 h; read-out: log10 GI50 (converted)
Protocol: as §1, §2

CAKl-1 = conditions: Homo sapiens; CAKl-1, Renal; 48 h; read-out: log10 GI50 (converted)
Protocol: as §1, §2

SNB-75 = conditions: Homo sapiens; SNB-75, CNS; 48 h; read-out: log10 GI50 (converted)
Protocol: as §1, §2

SK-MEL-28 = conditions: Homo sapiens; SK-MEL-28, Melanoma; 48 h; read-out: log10 GI50 (converted)
Protocol: as §1, §2

OVCAR-8 = conditions: Homo sapiens; OVCAR-8, Ovarian; 48 h; read-out: log10 GI50 (converted)
Protocol: as §1, §2

SK-OV-3 = conditions: Homo sapiens; SK-OV-3, Ovarian; 48 h; read-out: log10 GI50 (converted)
Protocol: as §1, §2

RPMl-8226 = conditions: Homo sapiens; RPMl-8226, Leukemia; 48 h; read-out: log10 GI50 (converted)
Protocol: as §1, §2

HOP-92 = conditions: Homo sapiens; HOP-92, NSCL; 48 h; read-out: log10 GI50 (converted)
Protocol: as §1, §2

MDA-MB-435 = conditions: Homo sapiens; MDA-MB-435, Melanoma; 48 h; read-out: log10 GI50 (converted)
Protocol: as §1, §2

LOX IMVI = conditions: Homo sapiens, Melanoma, 48 h, read-out: log10 GI50 (converted)
Protocol: as §1, §2

KM12 = conditions: Homo sapiens; KM12, Colon; 48 h; read-out: log10 GI50 (converted)
Protocol: as §1, §2

MALME-3M = conditions: Homo sapiens, Melanoma, 48 h, read-out: log10 GI50 (converted)
Protocol: as §1, §2

TK-10 = conditions: Homo sapiens; TK-10, Renal; 48 h; read-out: log10 GI50 (converted)
Protocol: as §1, §2

RXF 393 = conditions: Homo sapiens; RXF 393, Renal; 48 h; read-out: log10 GI50 (converted)
Protocol: as §1, §2

DU-145 = conditions: Homo sapiens; DU-145, Prostate; 48 h; read-out: log10 GI50 (converted)
Protocol: as §1, §2

A498 = conditions: Homo sapiens; A498, Renal; 48 h; read-out: log10 GI50 (converted)
Protocol: as §1, §2

HCT-116 = conditions: Homo sapiens; HCT-116, Colon; 48 h; read-out: log10 GI50 (converted)
Protocol: as §1, §2

ACHN = conditions: Homo sapiens, Renal, 48 h, read-out: log10 GI50 (converted)
Protocol: as §1, §2

HOP-62 = conditions: Homo sapiens; HOP-62, NSCL; 48 h; read-out: log10 GI50 (converted)
Protocol: as §1, §2

T-47D = conditions: Homo sapiens, T47D, Breast, 48 h, read-out: log10 GI50 (converted)
Protocol: as §1, §2

UACC-257 = conditions: Homo sapiens; UACC-257, Melanoma; 48 h; read-out: log10 GI50 (converted)
Protocol: as §1, §2

SN12C = conditions: Homo sapiens, Renal, 48 h, read-out: log10 GI50 (converted)
Protocol: as §1, §2

HCC-2998 = conditions: Homo sapiens; HCC-2998, Colon; 48 h; read-out: log10 GI50 (converted)
Protocol: as §1, §2

Row | SMILES | GI50 (SW-620) | GI50 (HS 578T) | GI50 (K-562) | GI50 (MDA-MB-231/ATCC) | GI50 (NCI-H322M) | GI50 (MCF7) | GI50 (CAKl-1) | GI50 (SNB-75) | GI50 (SK-MEL-28) | GI50 (OVCAR-8) | GI50 (SK-OV-3) | GI50 (RPMl-8226) | GI50 (HOP-92) | GI50 (MDA-MB-435) | GI50 (LOX IMVI) | GI50 (KM12) | GI50 (MALME-3M) | GI50 (TK-10) | GI50 (RXF 393) | GI50 (DU-145) | also measured
1 | COc1ccc(Nc2nccc(-c3ccc4c(c3)CCCC(=O)N4)n2)cc1O [Compound 2n, 7-[2-(3-Hydroxy-4-methoxyanilino)pyrimidin-4-yl]-1,3,4,5-tetrahydro-2H-1-benzazepin-2-one] | 4.47 µM | 2.14 µM | 4.27 µM | > 100 µM | 30.9 µM | 5.13 µM | 5.62 µM | 2.19 µM | 9.12 µM | 9.77 µM | 5.25 µM | 5.25 µM | 0.214 µM | 5.25 µM | 5.5 µM | 4.79 µM | > 100 µM | 23.4 µM | 2.69 µM | 5.01 µM | GI50 (A498): 37.2 µM; GI50 (HCT-116): 3.8 µM; GI50 (ACHN): 4.17 µM; GI50 (HOP-62): 8.13 µM; GI50 (T-47D): 4.07 µM; GI50 (UACC-257): 14.8 µM; GI50 (SN12C): 5.75 µM; GI50 (HCC-2998): 22.9 µM
2 | O=C1CCCc2cc(-c3ccnc(Nc4ccc(O)cc4)n3)ccc2N1 [Compound 2e, 7-[2-(4-Hydroxyanilino)pyrimidin-4-yl]-1,3,4,5-tetrahydro-2H-1-benzazepin-2-one] | 4.79 µM | 4.9 µM | 3.72 µM | > 100 µM | 4.07 µM | 4.27 µM | 4.17 µM | 3.39 µM | 5.75 µM | 4.07 µM | 3.02 µM | 3.24 µM | 6.61 µM | 3.63 µM | 3.39 µM | 2.57 µM | 2.19 µM | 3.8 µM | 1.86 µM | 3.39 µM | GI50 (A498): 4.79 µM; GI50 (HCT-116): 3.63 µM; GI50 (ACHN): 2.57 µM; GI50 (HOP-62): 11 µM; GI50 (T-47D): 1.55 µM; GI50 (UACC-257): 4.17 µM; GI50 (SN12C): 6.17 µM; GI50 (HCC-2998): 8.71 µM
